According to patent US20240166643A1, “IMIDAZO[1,2-A]PYRIDINE COMPOUNDS AND THEIR USE IN THERAPY” (Imperial College Innovations Limited, priority 2020, published 2024):

Assays:
[1] = system: Plasmodium falciparum 3D7; assay: SYBR Green assay, Plasmodium falciparum strain 3D7; type: cell-based; details: P. falciparum strain 3D7, 96 h incubation, read-out: Pf EC50 strain 3D7
Experimental: Assay (g): SYBR Green Assay
EC50 values for Plasmodium falciparum (Pf) NMT strain 3D7 or NF54 were measured for certain compounds of the invention using an assay utilising SYBR Green dye. The assay for NMT strain 3D7 was carried out as follows:
Synchronous Plasmodium falciparum 3D7 late stage trophozoites at 33-36 h were used. Final parasitemia and haematocrit were between 0.1-0.2% and 2% respectively. Red blood cells used for the assay were centrifuged to remove the buffy coat and washed twice in Roswell Park Memorial Institute (RPMI) Media 1640 so that no white blood cells were present. The culture medium contained RPMI 1640 with 5 g/L Albumax, 0.025 g/L gentamycin and 0.292 g/L L-glutamine.
Sterile 96 well black tissue culture plates (Costar) were used routinely for every assay. […] Chloroquine was used as a standard with ten times reduced concentrations range as above. Two sets of control were used in duplicate wells, one set with no added compound of the invention or standard (positive control) and one with uninfected red blood cells (negative control).
The plates were incubated at 37° C. for 48 h in a gas chamber flushed with 5% CO2, 5% O2 and 90% N2. After 48 h supernatants were taken out from each well and replaced with fresh drug and incubated for a further 48 h in the same manner. At the end of the 96 h incubation, 25 μL of SYBR Green I dye (SYBR Green I nucleic acid gel stain 10,000×, in DMSO from Invitrogen) in lysis buffer (1 μL dye to 1 mL lysis buffer) was added to each well and stored overnight at −20° C. The lysis buffer contained Tris (20 mM, pH 8.0), EDTA (2 mM), Saponin (0.16%) and Triton X-100 (1.6% v/v).
Plates were warmed to room temperature and fluorescence intensity was measured with a FLUOstar Omega Microplate fluorescence reader (BMG Labtech). Values were expressed in relative fluorescence units. Binding of SYBR Green is specific for parasite DNA as mature erythrocytes lack DNA and RNA. Fluorescence intensity unit was converted to percentage (%) of growth as follows:
% growth=(culture under drug)−(uninfected RBC)/(culture with no drug)−(uninfected RBC)×100
and the EC50 value was determined.

[2] = molecular target: Plasmodium vivax (Pv) NMT (Plasmodium vivax (strain Salvador I), UniProt A5K1A2); assay: biochemical
Chain of Plasmodium vivax (Pv) NMT (A5K1A2 1-410): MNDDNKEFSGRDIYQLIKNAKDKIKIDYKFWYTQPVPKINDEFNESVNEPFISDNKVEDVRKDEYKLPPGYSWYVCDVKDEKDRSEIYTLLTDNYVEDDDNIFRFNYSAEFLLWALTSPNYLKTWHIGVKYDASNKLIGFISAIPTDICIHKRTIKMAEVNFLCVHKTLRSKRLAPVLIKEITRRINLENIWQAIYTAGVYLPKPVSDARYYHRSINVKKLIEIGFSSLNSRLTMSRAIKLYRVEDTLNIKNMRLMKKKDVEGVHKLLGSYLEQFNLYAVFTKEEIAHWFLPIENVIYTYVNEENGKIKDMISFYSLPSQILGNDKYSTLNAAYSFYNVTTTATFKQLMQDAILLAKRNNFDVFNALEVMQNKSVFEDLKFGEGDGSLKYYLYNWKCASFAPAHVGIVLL

Human NMT1 (HsNMT1) = Human NMT1 (HsNMT1) (Homo sapiens, UniProt P30419); assay: biochemical
Chain of Human NMT1 (HsNMT1) (P30419 whole entry, looked up): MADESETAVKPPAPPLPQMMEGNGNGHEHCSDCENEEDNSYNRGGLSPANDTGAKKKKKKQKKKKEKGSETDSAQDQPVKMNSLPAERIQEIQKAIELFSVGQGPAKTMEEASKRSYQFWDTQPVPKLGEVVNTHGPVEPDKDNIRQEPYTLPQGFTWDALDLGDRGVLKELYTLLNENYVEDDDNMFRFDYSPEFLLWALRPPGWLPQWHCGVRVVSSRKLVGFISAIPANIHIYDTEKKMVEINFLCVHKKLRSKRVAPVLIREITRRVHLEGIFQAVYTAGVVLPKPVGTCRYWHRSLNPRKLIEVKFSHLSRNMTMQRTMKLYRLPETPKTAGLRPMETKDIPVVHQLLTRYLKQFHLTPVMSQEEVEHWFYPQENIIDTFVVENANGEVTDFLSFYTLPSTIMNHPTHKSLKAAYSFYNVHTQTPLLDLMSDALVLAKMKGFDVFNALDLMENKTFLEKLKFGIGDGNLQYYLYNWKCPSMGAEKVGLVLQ

Row | SMILES | EC50 [1] [nM] | IC50 [2] [nM] | IC50 (Human NMT1 (HsNMT1)) [nM]
1 | O=C(NCc1cnc2ccccn12)C1CN(c2nc(N3CCCNCC3)ncc2Cl)C1 [Example 5] | 2500 | 14 | 
2 | O=C(NCc1cnc2cc(F)ccn12)C1CN(c2nc(N3CCCNCC3)ncc2Cl)C1 [Example 21] | 800 | 17 | 50
3 | CC1CN(c2ncc(Cl)c(N3CC(C(=O)NCc4cnc5ccccn45)C3)n2)CCN1 (stereo not shown) [Example 29] | 620 | 18 | 79
4 | CC(NC(=O)C1CN(c2nc(N3CCNCC3)ncc2Cl)C1)c1cnc2ccccn12 (stereo not shown) [Example 30] | 960 | 8.5 | 26
5 | CC(C)(NC(=O)C1CN(c2nc(N3CCNCC3)ncc2F)C1)c1cnc2ccccn12 [Example 32] | 64 | 9.1 | 
6 | COc1cnc(N2CCNCC2)nc1N1CC(C(=O)NC(C)(C)c2cnc3ccccn23)C1 [Example 34] | 140 | 9.1 | 
7 | C[C@H]1CN(c2ncc(Cl)c(N3CC(C(=O)NC(C)(C)c4cnc5ccccn45)C3)n2)CCN1 [Example 37] | 27 | 8.4 | 7.9
8 | C[C@H]1CN(c2ncc(F)c(N3CC(C(=O)NC(C)(C)c4cnc5ccccn45)C3)n2)CCN1 [Example 38] | 150 | 14 | 
9 | CN(c1ncc(F)c(N2CC(C(=O)NC(C)(C)c3cnc4ccccn34)C2)n1)C1CCNC1 (stereo not shown) [Example 40] | 250 | 18 | 160
10 | CC1CN(c2ncc(Cl)c(N3CC(C(=O)NC(C)(C)c4cnc5ccccn45)C3)n2)C[C@@H](C)N1 (stereo partly shown) [Example 46] | 57 |  | 
11 | CC1CN(c2ncc(F)c(N3CC(C(=O)NC(C)(C)c4cnc5ccccn45)C3)n2)C[C@@H](C)N1 (stereo partly shown) [Example 47] | 140 | 12.2 | 43
12 | CC1CN(c2ncc(F)c(N3CC(C(=O)NC(C)(C)c4cnc5ccccn45)C3)n2)C[C@H](C)N1 (stereo partly shown) [Example 49] | 57 | 8.4 | 14
13 | CN1CCC(N(C)c2ncc(F)c(N3CC(C(=O)NC(C)(C)c4cnc5ccccn45)C3)n2)C1 (stereo not shown) [Example 58] | 410 | 13 | 37
14 | COc1cnc(N2CCCN(C)CC2)nc1N1CC(C(=O)NC(C)(C)c2cnc3ccccn23)C1 [Example 62] | 11 | 6 | 5
15 | COc1cnc(N2CCN(C)CC2)nc1N1CC(C(=O)NC(C)(C)c2cnc3ccccn23)C1 [Example 63] | 180 | 71 | 
16 | CN1CCN(c2ncc(F)c(N3CCC(C(=O)NC(C)(C)c4cnc5ccccn45)C3)n2)CC1 (stereo not shown) [Example 64] | 850 | 20 | 190
17 | C[C@@H]1CN(C)CCN1c1ncc(Cl)c(N2CC(C(=O)NC(C)(C)c3cnc4ccccn34)C2)n1 [Example 68] | 74 | 32 | 88
18 | CC1NCCN(c2ncc(Cl)c(N3CC(C(=O)NC(C)(C)c4cnc5ccccn45)C3)n2)C1C (stereo not shown) [Example 79] | 2.2 |  | 
19 | C[C@H]1CN(c2ncc(F)c(N3CC(C(=O)NC(C)(C)c4cnc5ccccn45)C3)n2)CCN1C [Example 82, 1-{2-[(3S)-3,4-dimethylpiperazin-1-yl]-5-fluoropyrimidin-4-yl}-N-(2-{imidazo[1,2-a]pyridin-3-yl}propan-2-yl)azetidine-3-carboxamide] | 94 | 43 | 100

Row | SMILES | EC50 [1] [nM] | IC50 [2] [nM] | IC50 (Human NMT1 (HsNMT1)) [nM]
20 | C[C@H]1CN(c2ncc(Cl)c(N3CC(C(=O)NC(C)(C)c4cnc5ccccn45)C3)n2)CCN1C [Example 83, 1-{5-chloro-2-[(3S)-3,4-dimethylpiperazin-1-yl]pyrimidin-4-yl}-N-(2-{imidazo[1,2-a]pyridin-3-yl}propan-2-yl)azetidine-3-carboxamide] | 150 | 10 | 
21 | C[C@@H]1CN(c2ncc(F)c(N3CCC(C(=O)NC(C)(C)c4cnc5ccccn45)C3)n2)CCN1C (stereo partly drawn) [Example 86, 1-{2-[(3R)-3,4-dimethylpiperazin-1-yl}-5-fluoropyrimidin-4-yl}-N-(2-{imidazo[1,2-a]pyridin-3-yl}propan-2-yl)pyrrolidine-3-carboxamide] | 200 | 7 | 39
22 | C[C@@H]1CN(c2ncc(F)c(N3CC(C)(C(=O)NC(C)(C)c4cnc5ccccn45)C3)n2)CCN1C [Example 87, 1-{2-[(3R)-3,4-dimethylpiperazin-1-yl]-5-fluoropyrimidin-4-yl}-N-(2-{imidazo[1,2-a]pyridin-3-yl}propan-2-yl)-3-methylazetidine-3-carboxamide] | > 760 | 38 | 150
23 | COc1cnc(N2C[C@@H](C)N(C)[C@H](C)C2)nc1N1CC(C(=O)NC(C)(C)c2cnc3ccccn23)C1 [Example 91, N-(2-{imidazo[1,2-a]pyridin-3-yl}propan-2-yl)-1-{5-methoxy-2-[(3R,5R)-3,4,5-trimethylpiperazin-1-yl]pyrimidin-4-yl}azetidine-3-carboxamide] | 230 |  | 
24 | C[C@@H]1CN(c2ncc(Cl)c(N3CC(C(=O)NC(C)(C)c4cnc5ccccn45)C3)n2)C[C@@H](C)N1C [Example 92, 1-{5-chloro-2-[(3R,5R)-3,4,5-trimethylpiperazin-1-yl]pyrimidin-4-yl}-N-(2-{imidazo[1,2-a]pyridin-3-yl}propan-2-yl)azetidine-3-carboxamide] | 260 | 41 | 55
25 | COc1cnc(N2C[C@H](C)N(C)[C@@H](C)C2)nc1N1CC(C(=O)NC(C)(C)c2cnc3ccccn23)C1 [Example 94, N-(2-{imidazo[1,2-a]pyridin-3-yl}propan-2-yl)-1-{5-methoxy-2-[(3S,5S)-3,4,5-trimethylpiperazin-1-yl]pyrimidin-4-yl}azetidine-3-carboxamide] | 440 |  | 
26 | C[C@@H]1CN(c2cc(N3CC(C(=O)NC(C)(C)c4cnc5ccccn45)C3)c(Cl)cn2)CCN1C [Example 103, 1-{5-chloro-2-[(3R)-3,4-dimethylpiperazin-1-yl]pyridin-4-yl}-N-(2-{imidazo[1,2-a]pyridin-3-yl}propan-2-yl)azetidine-3-carboxamide] | 5.3 |  | 
27 | C[C@@H]1CN(c2cc(N3CC(C(=O)NC(C)(C)c4cnc5ccccn45)C3)c(F)cn2)CCN1C [Example 104, 1-{2-[(3R)-3,4-dimethylpiperazin-1-yl]-5-fluoropyridin-4-yl}-N-(2-{imidazo[1,2-a]pyridin-3-yl}propan-2-yl)azetidine-3-carboxamide] | 35 |  | 
28 | CN1CCN(c2cc(N3CC(C(=O)NC(C)(C)c4cnc5ccccn45)C3)c(Cl)cn2)CC1 [Example 105, 1-[5-chloro-2-(4-methylpiperazin-1-yl)pyridin-4-yl]-N-(2-{imidazo[1,2-a]pyridin-3-yl}propan-2-yl)azetidine-3-carboxamide] | 18 |  | 
29 | C[C@H]1CN(C)CCN1c1ncc(Cl)c(N2CC(C(=O)N(C)Cc3cnc4ccccn34)C2)n1 [Example 106, 1-{5-chloro-2-[(2S)-2,4-dimethylpiperazin-1-yl]pyrimidin-4-yl}-N-{imidazo[1,2-a]pyridin-3-ylmethyl}-N-methylazetidine-3-carboxamide] | > 1000 |  | 
30 | C[C@@H]1CN(c2ncc(Cl)c(N3CC(C(=O)NC(C)(C)c4cnc5ccccn45)C3)n2)[C@@H](C)CN1C [Example 109, 1-{5-chloro-2-[(2S,5R)-2,4,5-trimethylpiperazin-1-yl]pyrimidin-4-yl}-N-(2-{imidazo[1,2-a]pyridin-3-yl}propan-2-yl)azetidine-3-carboxamide] | 120 |  | 
31 | C[C@@H]1CN(c2ncc(Cl)c(N3CC(C(=O)NC(C)(C)c4cnc5ccccn45)C3)n2)[C@H](C)CN1C [Example 110, 1-{5-chloro-2-[(2R,5R)-2,4,5-trimethylpiperazin-1-yl]pyrimidin-4-yl}-N-(2-{imidazo[1,2-a]pyridin-3-yl}propan-2-yl)azetidine-3-carboxamide] | 66 |  | 
32 | C[C@@H]1CN(c2ncc(F)c(N3CC(C(=O)NC(C)(C)c4cnc5ccccn45)C3)n2)[C@@H](C)CN1C [Example 111, 1-{5-fluoro-2-[(2S,5R)-2,4,5-trimethylpiperazin-1-yl]pyrimidin-4-yl}-N-(2-{imidazo[1,2-a]pyridin-3-yl}propan-2-yl)azetidine-3-carboxamide] | 450 |  | 
33 | CC(C)(NC(=O)C1CN(c2nc(N3CCCNCC3)nc3ccsc23)C1)c1cnc2ccccn12 [Example 123, 1-(2-(1,4-diazepan-1-yl)thieno[3,2-d]pyrimidin-4-yl)-N-(2-(Imidazo[1,2-a]pyridin-3-yl)propan-2-yl)azetidine-3-carboxamide] |  |  | 8
34 | CN(C(=O)C1CN(c2nc(N3CCC(N)CC3)ncc2Cl)C1)C(C)(C)c1cnc2ccccn12 [Example 128, 1-(2-(4-aminopiperidin-1-yl)-5-chloropyrimidin-4-yl)-N-(2-(Imidazo[1,2-a]pyridin-3-yl)propan-2-yl)-N-methylazetidine-3-carboxamide] |  |  | 234
35 | CN(C(=O)C1CN(c2nc(N3CCCC(N)CC3)ncc2Cl)C1)C(C)(C)c1cnc2ccccn12 (stereo not shown) [Example 131, 1-(2-(4-aminoazepan-1-yl)-5-chloropyrimidin-4-yl)-N-(2-(imidazo[1,2-a]pyridin-3-yl)propan-2-yl)-N-methylazetidine-3-carboxamide] |  |  | 179
36 | CN(C(=O)C1CN(c2nc(N3CC4CC3CN4)ncc2Cl)C1)C(C)(C)c1cnc2ccccn12 (stereo not shown) [Example 132, 1-(2-(2,5-diazabicyclo[2.2.1]heptan-2-yl)-5-chloropyrimidin-4-yl)-N-(2-(imidazo[1,2-a]pyridin-3-yl)propan-2-yl)-N-methylazetidine-3-carboxamide] |  |  | 190
37 | C[C@H]1CN(c2ncc(Cl)c(N3CC(C(=O)N(C)C(C)(C)c4cnc5ccccn45)C3)n2)CCN1C [Example 140, (S)-1-(5-chloro-2-(3,4-dimethylpiperazin-1-yl)pyrimidin-4-yl)-N-(2-(imidazo[1,2-a]pyridin-3-yl)propan-2-yl)-N-methylazetidine-3-carboxamide] |  |  | 146
